Article PMC8840040, “Pharmacokinetic Characterization of the DDAH1 Inhibitors ZST316 and ZST152 in Mice Using a HPLC-MS/MS Method” (Molecules, 2022)

Experiment: Urinary metabolites in 24 h urine by HPLC-MS/MS
Assay type: in vivo, FVB mice
Procedure: The assessment of the urinary elimination after oral and intravenous administration, in the urine fraction collected 24 h post dose, is reported in Table 6. […] To further investigate this issue, we searched for the presence of urinary metabolites in the 24 h urine samples in one mouse per treatment group. We identified at least eight molecules most likely originating from the parent compounds (Table 7; see Supplementary Figure S1 for the hypothesized structures).
Mice were treated with ZST316 and ZST152 using a dose of 60 mg/Kg (oral gavage) and 30 mg/Kg (intravenous bolus). For pharmacokinetic sampling, blood was collected at 15 and 30 min, and 1, 3, 8, and 24 h post dose. Three mice were analyzed per each time point. After the animals were anesthetized with isoflurane, the blood was drained from the retro-orbital plexus into heparinized tubes, and then centrifuged for 10 min at 4000× g at 4 °C to separate plasma. A 24-h urine fraction was collected in three mice for each drug and route of administration. Plasma and urine samples were stored at −20 °C until analysis by HPLC-MS/MS.
[…] chromatography was performed using a series 200 HPLC system (Perkin Elmer, Waltham, MA, USA) under gradient conditions with separation on a HILIC column, 3 µm, 100 A, 2.1 × 150 mm (Waters, Milford, MA, USA), coupled with a 3 µm, 3.9 × 5.0 mm guard column of the same material at the flow rate of 0.2 mL/min. Gradient features: 10% mobile phase (MP) A (NH4HCO2 10 mM, 10% CH3CN, 0.1% HCOOH) and 90% MP B (CH3CN, 0.1% HCOOH) as the initial constant condition; then to 90% MP A in 6 min and the constant condition for 1.5 min. Return to the start condition in 0.5 min and conditioning for 5.5 min. Total run time: 13.5 min. Mass spectrometric detection was performed using an API 4000 triple quadrupole mass spectrometer (SCIEX, Framingham, MA, USA) supplied with a Turbo Ion Spray source set at 350 °C and −4200 V, analyzing biological samples with electrospray ionization (ESI) operating in negative ion mode. Purified air was used as nebulizer gas (Gas 1) and heater gas (Gas 2) and N2 was used as curtain gas and collision activated dissociation gas. They were set to 40, 50, 20, and 4 instrument units (psi), respectively. The declustering potential (DP) was set at −119 V and the collision exit potential (CXP) at –10 V. All parameters of the source were defined by direct infusion of ZST316 and ZST152 1 µg/mL in mobile phase B. The final quantification was carried out in Selected Reaction Monitoring (SRM) with the following transitions: m/z 307.9 → 208.0 (collision energy of −29.5 eV) for ZST316 and m/z 271.9 → 170.9 (collision energy −24.7 eV) for ZST152 (Figure 2 and Figure 3). Data were processed with the software package Analyst 1.6.2 (AB SCIEX).

[1] = after intravenous ZST152, total dose 1.410 mg, mouse #1, 24 h urine
[2] = after oral ZST152, total dose 1.158 mg, mouse #3, 24 h urine
[3] = after intravenous ZST316, total dose 1.326 mg, mouse #1, 24 h urine
[4] = after oral ZST316, total dose 1.308 mg, mouse #3, 24 h urine

% of Dose recovered in urine [1] | Amount Recovered in urine [1] | % of Dose recovered in urine [2] | Amount Recovered in urine [2] | Compound | % of Dose recovered in urine [3] | Amount Recovered in urine [3] | % of Dose recovered in urine [4] | Amount Recovered in urine [4]
10.5% | 148 µg | 6.5% | 75.0 µg | COCCNC(=N)NCCC[C@H](N)c1noc(=O)[nH]1 [ZST152] |  |  |  | 
 |  |  |  | COCCNC(=N)NCCC[C@H](N)C(=O)NS(C)(=O)=O [ZST316] | 3.1% | 41.2 µg | 2.2% | 28.9 µg
